Assay in all cases: NCI-60 cell line screen, 48 h
The subject of assay [1] is NCI-H23 lung.
For assay [2], the system named is KM12 colon.
Assay [3] relates to UO-31 renal.
Assay [4] has as its system SF-539 CNS.
For assay [5], the system named is M14 melanoma.
Assay [6] has as its system OVCAR-8 ovarian.
The subject of assay [7] is 786-0 renal.
Assay [8] has as its system HT29 colon.
In assay [9] the test system is CAKI-1 renal.
In assay [10] the test system is NCI-H460 lung.

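How tested: cells in 96-well plates exposed to compound for 48 hours at five concentrations. GI50 = concentration required for 50% inhibition of growth. TGI: concentration producing complete growth inhibition.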

As for `COc1cc([C@@H]2c3cc4c(cc3[C@@H](NC(=O)c3ccc(OC(C)=O)cc3)C3COC(=O)[C@@H]32)OCO4)cc(OC)c1O` (stereo partly drawn), the TGI is 3.31 µM in [1]; 11.9 µM in assay [2]; 30.6 µM in assay [3]; 3.14 µM in assay [4]; 9.22 µM in assay [5]; 18.5 µM in assay [6]. Further, the TGI in assay [7] stood at 3.47 µM; in [8] it was 29.5 µM; in [9], 15.8 µM.

Turning to `Cc1ccnc(NC(c2ccccc2)c2ccc3cccnc3c2O)c1` (stereo not drawn), the GI50 is 5.12 µM in assay [1]; 4.15 µM in [2]; 1.3 µM in assay [3]; 3.35 µM in [4]; 3.09 µM in [5]; 2.16 µM in assay [10]. For the same compound, the GI50 is 3.23 µM in [6], 2.93 µM in assay [7] and 1.68 µM in [9]. In addition, the TGI in [1] is more than 100 µM; in [2], more than 100 µM; in assay [3] it was 14.6 µM; in assay [4] it was 19.2 µM; in [5] it was 29.2 µM; in [10], 6.34 µM. For the same compound, the TGI in [6] worked out at 16.3 µM; in assay [7], 35.1 µM; in [9] it was 7.17 µM.

As to `COc1cc(CC(=O)c2cc3c(cc2-c2ccccc2)OCO3)cc(OC)c1OC`, the TGI in assay [1], in [2], in [3], in assay [4], in [5] and in assay [10] was more than 100 µM throughout. Besides, the TGI in assay [6], in assay [7] and in assay [8] was more than 100 µM each time.

Take `O=C1C(Cl)C(c2ccc([N+](=O)[O-])cc2)N1n1cnc2ccccc2c1=O` (stereo not drawn): the TGI in [1], in assay [2], in assay [3], in assay [5], in [10] and in assay [6] was more than 100 µM in each case. Moreover, the TGI in [7], in assay [8] and in [9] was more than 100 µM throughout.

As to `COc1cc(OC)c(/C=C/C(=O)c2c(O)cc(OC)c(C3CCN(C)CC3)c2OC)c(OC)c1`, the GI50 is 1.41 µM in assay [1]; 1.71 µM in [2]; 1.36 µM in assay [3]; 1.69 µM in assay [4]; 1.67 µM in [5]; 1.42 µM in [7]. In addition, the figures for the GI50 in [8] and in [9] were 0.421 µM and 1.51 µM, respectively. In addition, the TGI came out at 2.78 µM in assay [1]; 3.38 µM in assay [2]; 2.81 µM in assay [3]; 3.12 µM in [4]; 3.05 µM in [5]; 2.72 µM in [7]. Also, the TGI in assay [8] was 1.5 µM; in [9], 2.93 µM.

`CCCCc1c2c(nc3c1CCCC3=O)CCCC2`: the TGI in [1], in [2], in assay [3], in assay [4], in assay [5] and in assay [10] was more than 100 µM in each case. In addition, the TGI in assay [6], in [7] and in assay [8] was more than 100 µM in each case.

For `O=c1sc(-c2nc3ccccc3[nH]2)c(/N=C/c2ccccc2)n1-c1ccccc1`, the TGI in assay [1], in assay [2], in assay [3], in [4], in assay [5] and in assay [6] was more than 100 µM each time. Also, the TGI in assay [7], in [8] and in assay [9] was more than 100 µM each time.

In the case of `COc1cc(=O)oc(/C=C/CO)c1C`, the TGI in assay [1], in assay [2], in assay [3], in assay [4], in [5] and in assay [6] was more than 100 µM in each case. In addition, the TGI in [7], in assay [8] and in [9] was more than 100 µM in each case.

For `Cc1cc(C)c(C2=NO[C@@H]3C(=O)N(c4ccc(Cc5ccc(N6C(=O)[C@H]7C(c8c(C)cc(C)cc8C)=NO[C@H]7C6=O)cc5)cc4)C(=O)[C@H]23)c(C)c1`, the TGI in assay [1], in [2], in assay [3], in assay [4], in assay [5] and in [6] was more than 100 µM in each case. Besides, the TGI in assay [7], in [8] and in assay [9] was more than 100 µM throughout.

Regarding `O=C(CC1(O)C(=O)Nc2ccc([N+](=O)[O-])cc21)c1ccc(Br)cc1` (stereo not drawn), the TGI in [1], in [2], in assay [3], in [4], in [5] and in [10] was more than 100 µM each time. The TGI in [6], in [7] and in [8] was more than 100 µM each time.

Turning to `CSc1nc(SC)c2c(C)cn(C3OC(C)C(O)C(O)C3O)c2n1` (stereo not drawn), the TGI in assay [1], in [2], in assay [3], in assay [4], in [5] and in [10] was more than 100 µM in each case. Also, the TGI in assay [6], in [7] and in assay [8] was more than 100 µM each time.

In the case of `CCN(CC)CCNC(=O)C(Cl)=C1C(Cl)=C(Cl)C(Cl)=C1Cl`, the GI50 in assay [1] is 5.44 µM; in assay [2], 2.75 µM; in assay [3], 6.88 µM; in assay [4], 4.33 µM; in assay [10], 2.71 µM; in assay [6] it was 2.81 µM. Besides, the GI50 in assay [7] is 5.07 µM; in [8], 3.49 µM; in assay [9], 2.73 µM. Moreover, the TGI was 26.5 µM in assay [1]; 10.6 µM in assay [2]; 26 µM in assay [3]; 53.1 µM in [4]; 11.1 µM in assay [10]; more than 100 µM in assay [6]. Besides, the TGI in assay [7] is 41.7 µM; in assay [8], 12.2 µM; in assay [9], more than 100 µM.

These data come from PubChem BioAssay (NCI).
